Reference: patent publication US7951548B2, “IL-13 production inhibitor” (Takeda Pharmaceutical Company Limited, priority 2005, dated 2011)

How the values were obtained:
Assay type in all cases: cell-based
[1] = system: rat primary culture microglial cells (PMGC); assay: Changes of intracellular calcium levels in rat primary culture microglial cells (FLIPR); conditions: 0.2 to 10 μM lysoPS
Procedure: The reactivity of rat primary culture microglial cells (PMGC) with lysoPS was examined using FLIPR. PMGC was incubated in DMEM (Invitrogen) supplemented with 10% calf fetal serum (Invitrogen), unless otherwise indicated. PMGC, which was prepared from the brain of rat of one day old one day before assay, was plated on a Black walled 96-well plate (Costar) at 5.0×10^4 cells/well, and incubated overnight at 37° C. in a CO2 incubator adjusted to 5% CO2. After lysoPS was added to the PMGC, changes of intracellular calcium levels in this case were assayed using FLIPR (Molecular Device). To assay the changes of intracellular calcium levels on FLIPR, the following pretreatment was performed. First, an assay buffer was prepared to incorporate fluorescent dye Fluo-3AM (DOJIN) in the cells or wash the cells immediately before the FLIPR assay. To a solution of 20 ml of 1M HEPES (pH 7.4) (DOJIN) to 1000 ml of HBSS (Invitrogen) (hereinafter, HBSS/HEPES solution), 10 ml of the solution mixture obtained by dissolving 710 mg of Probenecid (Sigma) in 5 ml of 1N NaOH and further adding 5 ml of the HBSS/HEPES solution thereto was added. The resulting solution was used as an assay buffer. Next, 50 μg of Fluo-3AM was dissolved in 21 μl of DMSO (DOJIN) and an equal volume of 20% Pluronic acid (Molecular Device) was further mixed therewith. […]

GPR34 [2] = biological target: T1, GPR34 (Homo sapiens, UniProt Q9UPC5); assay: DNA synthesis activity (tritium-labeled thymidine) of human GPR34-expressed CHO cells; conditions: serum-free medium, 16 hours
T1 construct: expressed in transfected cells
Procedure: The human GPR34-expressed CHO cells prepared by the procedure as described in REFERENCE EXAMPLE 1 were plated at a cell density of 20,000 cells/well on a 96-well plate charged with serum-free medium. The cells were allowed to stand for 4 hours, 0, 0.1, 0.3, 1 and 3 μM lysoPS was added thereto, respectively, followed by incubation for 16 hours. After 1 μCi/well of tritium-labeled thymidine (Amersham, TRK120) was added to achieve labeling for 4 hours, fixation was performed in 10% trichloroacetic acid. Solubilization in an aqueous sodium hydroxide solution was followed by neutralization in trichloroacetic acid to collect DNA with a cell harvester. The radioactivity on the filter was taken as DNA synthesis activity.

GPR34 [3] = biological target: T1, GPR34; assay: Intracellular cAMP production inhibitory activity on GPR34-expressed CHO cells (forskolin stimulated); conditions: phosphatidylserine in a higher concentration
Procedure: The GPR34-expressed CHO cells prepared in (1-2) described above and selected in (1-3) described above were plated on a 24-well plate in 6×10^4 cells/well followed by incubation for 48 hours. The cells were washed with αMEM medium (pH 7.5) containing 0.2 mM 3-isobutylmethylxanthine, 0.05% BSA and 20 mM HEPES (hereinafter αMEM medium (pH 7.5) containing 0.2 mM 3-isobutylmethylxanthine, 0.05% BSA and 20 mM HEPES is referred to as the reaction buffer). Thereafter, 0.5 mL of the reaction buffer was added and the mixture was kept warm for 30 minutes in an incubator. The reaction buffer was removed and 0.25 mL of fresh reaction buffer was replenished to the cells. Then, 0.25 mL of the reaction buffer containing a sample and 2 μM forskolin was added to the cells, followed by reacting at 37° C. for 30 minutes. The reaction solution was removed and 0.5 mL of the cell lysis solution attached to cAMP EIA kit (Applied Biosystems) to extract cAMP in the cells. The cAMP level in the extract was quantified using the same kit. Based on this measurement data, the cAMP production inhibitory activity was calculated based on the equation shown below and expressed in terms of percentage to the control group. […]

[4] = system: rat peritoneal mast cells; assay: Degranulation of rat peritoneal mast cells (β-hexosaminidase activity in supernatant); conditions: for degranulation: 20 minutes
Procedure: The rat peritoneal mast cells (RPMC) obtained by the procedure described in EXAMPLE 1 were subjected to passive sensitization for 30 minutes on ice using DNP IgE (Yamasa, 10 μg/ml), washed and plated on a 96-well plate in a final cell concentration of 100,000 cells/well in the reaction solution. RPMC was stimulated by lysoPS and DNP-BSA (Carbiochem) and the plate was centrifuged 20 minutes after. The β-hexosaminidase activity in the supernatant of the reaction solution was assayed using the degradation activity of 4-methylumbeliferryl-2-acetamido-2-deoxy-β-D-glucopyranoside (Wako Pure Chemicals) as an indicator.

T1 sequence (Q9UPC5 whole entry): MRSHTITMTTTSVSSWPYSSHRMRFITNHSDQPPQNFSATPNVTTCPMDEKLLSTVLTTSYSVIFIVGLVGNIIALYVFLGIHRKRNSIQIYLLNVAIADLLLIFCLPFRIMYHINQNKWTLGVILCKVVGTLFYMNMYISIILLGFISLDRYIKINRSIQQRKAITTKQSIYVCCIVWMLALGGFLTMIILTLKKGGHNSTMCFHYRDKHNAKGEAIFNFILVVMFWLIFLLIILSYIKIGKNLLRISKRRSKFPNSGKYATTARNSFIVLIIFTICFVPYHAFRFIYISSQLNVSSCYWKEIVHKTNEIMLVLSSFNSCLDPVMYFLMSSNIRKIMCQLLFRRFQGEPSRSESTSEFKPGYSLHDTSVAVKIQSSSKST

Q: For lysophosphatidylserine [lysoPS], which “increase in intracellular calcium levels” value [1] is on record?
A: responded concentration-dependently

Q: And the “DNA synthesis activity, increase” value (GPR34 [2]; 0.1 μM lysoPS)?
A: 1.1 times

Q: What about the “DNA synthesis activity, increase” value (GPR34 [2]; 0.3 μM lysoPS) of the same substance?
A: 1.2 times

Q: And the “DNA synthesis activity, increase” value (GPR34 [2]; 1 μM lysoPS)?
A: 2.0 times

Q: What about the “DNA synthesis activity, increase” value (GPR34 [2]; 3 μM lysoPS) of the same substance?
A: 3.2 times

Q: And the “cAMP production inhibitory activity” value (GPR34 [3])?
A: marked activities

Q: What about the degranulation ([4]; 100 ng/ml DNP-BSA with 0.1 μM lysoPS added simultaneously) of the same substance?
A: 8.4%

Q: And the degranulation ([4]; 100 ng/ml DNP-BSA with 0.3 μM lysoPS added simultaneously)?
A: 14.7%

Q: And the degranulation ([4]; 100 ng/ml DNP-BSA with 1 μM lysoPS added simultaneously)?
A: 26.0%

Q: What about the degranulation ([4]; 100 ng/ml DNP-BSA with 3 μM lysoPS added simultaneously) of the same substance?
A: 36.7%

Q: And the degranulation ([4]; 100 ng/ml DNP-BSA with 10 μM lysoPS added simultaneously)?
A: 45.2%

Q: What about the “degranulation (in words)” value ([4]; 0.1 to 10 μM lysoPS with 100 ng/ml DNP-BSA) of the same substance?
A: increased concentration-dependently
